This is an account of results in patent US8518965B2, “Compositions and methods for treating cancer” (Trustees of Dartmouth College, priority 2009, dated 2013).

Data set [1] can be described thus: Solubility in solvents and buffers. The data set is classed as physicochemical. The following applies: for solubility: read-out: Solubility (mg/ml), 25° C. As to the method: Characterization of D11B. The solubility of D11B in different solvents was analyzed (Table 1).
The solubility of D11B in various combinations of solvents was also analyzed. […] For the analysis of co-solvents, stock solutions were prepared by dissolving D11B in a corresponding solvent. Stock solutions of D11B in dimethylsulfoxide (DMSO) were prepared at 25° C., and stock solutions of D11B in PEG-400, CREMOPHOR® EL and Polysorbate 80 were prepared at 100° C. Injection solutions, in water (0.3 mg/ml), were prepared by dropwise addition of the stock solution to a required volume of vigorously stirred hot water (80° C.).
The solubility of D11B×2AH in DMSO, PEG-400, EtOH, and buffer was determined (Table 7).

The test system of data set [2] is SF 295 human glioblastoma cells. Put plainly: Colony formation assay, SF 295 cells. The data set is classed as cell-based. How it is done:
NCI/ADR-RES human breast cancer cells (500 cells), HCT116 human colon cancer cells (400 cells) or SF 295 human glioblastoma cells (1000 cells) were plated in 60 mm Petri dishes containing 2.7 ml of medium (modified McCoy's 5a medium containing 10% fetal bovine serum and 100 units/ml penicillin and 100 μg/ml streptomycin). The cells were incubated in a CO2 incubator at 37° C. for 5 hours for attachment to the bottom of Petri dishes. Compounds were prepared fresh in medium at ten times the final concentration, and then 0.3 ml of this stock solution was added to the 2.7 ml of medium in the dish. The cells were then incubated with compounds for 72 hours at 37° C. At the end of incubation, the compound-containing media were decanted, the dishes were rinsed with 4 ml of Hank's Balance Salt Solution (HBSS), 5 ml of fresh medium was added, and the dishes were returned to the incubator for colony formation. The cell colonies were counted using a colony counter after incubation for 14 days for NCI/ADR-RES cells and 10 days for HCT116 cells and SF 295 cells. Cell survival was calculated and the IC50 values (the drug concentration producing 50% inhibition of colony formation) were determined for each tested compound.
One thousand SF 295 cells were plated in 60 mm Petri dishes containing 2.7 ml of medium (modified McCoy's 5a medium containing 10% fetal bovine serum and 100 units/ml penicillin and 100 μg/ml streptomycin). The cells were incubated in a CO2 incubator at 37° C. for 5 hours for attachment to the bottom of Petri dishes. Compounds were prepared fresh in medium at ten times the final concentration, and then 0.3 ml of this stock solution was added to the 2.7 ml of medium in the dish. The cells were then incubated with the compounds for 72 hours at 37° C. At the end of incubation, the compound-containing media were decanted, the dishes were rinsed with 4 ml of Hank's Balance Salt Solution (HBSS), 5 ml of fresh medium was added, and the dishes were returned to the incubator for colony formation. After incubation for 10 days, the cell colonies were counted using a colony counter. Cell survival was calculated and the values of IC50 were determined for each compound tested.

Read-outs that look alike come from different tables or passages of the source.

One may read the IC50 as the concentration at which inhibition is half-maximal. With `c1ccc2c(Nc3ccc(Oc4ccc(Nc5c6ccccc6nc6ccccc56)cc4)cc3)c3ccccc3nc2c1` [Compound D11B], in data set [1] (5% dextrose in water), the “Solubility in 5% dextrose in water” value is given as “negligible”. For the same compound, the solubility in data set [1] (AcOH, 25 °C, organic solvent or mixture, AcOH) was about 0.01 mg/mL; in data set [1] (AcOH-H2O (1-1), 25 °C, aqueous with cosolvent or surfactant or cyclodextrin, AcOH—H2O (1-1)) it was over 1.1 mg/mL; in data set [1] (AcOH-H2O (9-1), 25 °C, organic solvent or mixture, AcOH—H2O (9-1)) it was over 13 mg/mL; in data set [1] (CHCl3, 25 °C, organic solvent or mixture, CHCl3), 0.12 mg/mL; in data set [1] (DMF, 25 °C, organic solvent or mixture, DMF), about 20 mg/mL; in data set [1] (DMSO, 25 °C, organic solvent or mixture, DMSO), about 100 mg/mL. The solubility was about 1 mg/mL in data set [1] (MeOH, 25 °C, organic solvent or mixture, MeOH); under 0.1 mg/mL in data set [1] (Na2HPO4-citric acid buffer, 25 °C, pH 4, aqueous buffer, Na2HPO4-citric acid buffer (pH = 4), first entry); under 0.1 mg/mL in data set [1] (Na2HPO4-citric acid buffer, 25 °C, pH 4, aqueous buffer, Na2HPO4-citric acid buffer (pH = 4), second entry); about 12 mg/mL in data set [1] (PEG-400, 25 °C, organic solvent or mixture, PEG-400, heating to 100° C. was required). For the same compound, the “Solubility (mg/ml), 25° C.” value in data set [1] (H2O) is “negligible”. In addition, the Solubility in saline entry in data set [1] (saline (0.9% NaCl in water)) is “negligible”. For the same compound, the IC50 in data set [2] (Homo sapiens, SF 295 cells, 72 hours with compound, colonies counted after 10 days, read-out: IC50 (nM) Glioblastoma) worked out at 177 nM. Further, the “IC50 values lower for glioblastoma cells as compared to breast cancer cells” value in data set [2] (glioblastoma vs breast cancer cells) was “approximately 10 fold”.
